From patent US12280040B2, “Compositions and methods of a dihydroisoxazole compound that reduces ectoparasite infestations on fish” (EVAH Atlantic Inc., priority 2023, dated 2025)

Test system: copepodid stage of sea lice
Assay: Bath test against copepodid stage of sea lice
Format: in vivo
Settings: in a bath at similar dosage
Source text: While compounds in this class act with similar modes of action (in this case on the gamma-aminobutyric acid (GABA) and glutamate gated chloride channels), differences do exist among them that influence pharmacological activity.

C#CCNC(=O)CNC(=O)c1sc(C2=NOC(c3cc(Cl)cc(Cl)c3)(C(F)(F)F)C2)cc1C (stereo not shown)
activity against the copepodid stage of sea lice: inactive
